Measurements from patent US20060099568A1, “Signals and molecular species involved in senescence” (priority 2002, published 2006).

How the values were obtained:
[1] = test system: CREB; test: CREB phosphorylation, Western blot with anti-phospho-CREB antibody; format: cell-based, human; settings: near-senescent fibroblasts; 30 μg/ml LPA
Experimental: (§1) FIG. 10 represents LPA-dependent PKA activity and CREB phosphorylation in presenescent and near-senescent fibroblasts. Subconfluent presenescent (passage 8, Pa 8) and near-senescent (passage 24, Pa 24) fibroblasts were serum-starved for 2 days and treated with 30 μg/ml LPA for the indicated times. The PKA activity (A) was determined in cell homogenates with kemptide and [γ^32P]ATP as substrates. The radioactivity incorporated into kemptide was measured by a beta-counter and the enzyme activity was calculated as pmol/min/mg protein. The data represents an average of triplicate experiments. The level of phospho-CREB (B) was measured by Western blot analysis using an anti-phospho-CREB antibody.
The expression levels of signaling proteins were examined by Western blot analysis, as described previously (Yeo et al., 2000a). […] The protein concentrations of the lysates were determined using a BCA protein assay kit, as described by the protocol supplied by the manufacturer. […] To examine the level of phospholipase D 1/2, the immunoprecipitated protein obtained using 10 μl of anti-phospholipase D 1 anti-sera (Box45, ESTP4) was analyzed by Western blot against polyclonal anti-phospholipase D 1 antibodies (1:20 dilution of NC STP4 anti-serum).

[2] = test system: PKA; test: measurement of protein kinase A activity (Kemptide, [γ-32P]ATP); format: cell-based, human; settings: 30 μg/ml LPA
Experimental: as §1
LPA-treated cells were harvested and homogenized in ice-cold homogenization buffer containing 0.25 M sucrose, 10 mM Tris-HCl, pH 7.5, 10 MM MgCl2, 2 mM EGTA, and protease inhibitors. Homogenates were centrifuged at 20,000×g at 4° C. for 20 min. Protein kinase A assays were performed as described previously (Yang et al., 1999). […] The paper was washed once with 0.75% phosphoric acid and the radioactivity incorporated into Kemptide was quantified on a scintillation counter (Model Tri-Carb 1600 CA, Packard Instrument Company). […] PKI-inhibitable kinase activity was calculated and the data were reported as percent of total PKA activity. […]

[3] = test system: phosphodiesterases (PDEs); test: measurement of phosphodiesterase activity in LPA-treated cells; format: cell-based, human; settings: 30 μg/ml LPA
Experimental: Subconfluent presenescent (passage 8, Pa 8) and near-senescent (passage 24, Pa 24) fibroblasts were serum-starved for 2 days and treated with 30 μg/ml LPA for the indicated times. The activities of adenylyl cyclase (A) and phosphodiesterase (B) were determined in the fresh membranes and total cell lysates as described in Materials and Methods. The enzyme activities were calculated as pmol/μg/min. The data represents an average of triplicate experiments.
Phosphodiesterase (PDE) assays were performed as described previously (Jang and Juhnn, 2001). 15 μg of cytosolic proteins were incubated in 200 μl of reaction mixture containing 50 mM Tris-HCl, pH 7.4, 3 mM MgCl2, 60 pmol cAMP, 1 mM 5′-AMP for 15 min at 37° C. After the reaction was stopped by adding 2.0 M perchloric acid, the amount of remaining cAMP was determined by cAMP binding assay.

[4] = test system: human diploid fibroblasts; test: confocal microscopic measurement of actin polymerization (NBD-phallacidin); format: cell-based; settings: PDGF 50 ng/ml, LPA 1 μg/ml
Experimental: FIG. 2 represents differential changes in growth factor-induced actin polymerization in senescent fibroblasts. […] The cells were fixed, permeabilized, and stained with NBD-phallacidin, then photographed.
F-actin was stained as described by Shin et al. (1999). Quiescent cells grown on glass cover slips in multi-well culture plates were treated with agonists for 30 min, and the cells were fixed with 3.7% paraformaldehyde in PBS for 30 min on ice. Following permeabilization with 0.2% Triton X-100 in PBS for 15 min on ice, the cells were stained with […] NBD-phallacidin in PBS for 30 min at RT. The stained cells were washed three times with PBS for 15 min and the cover slip was mounted on a slide glass with Gelvatol, which was prepared by mixing 100 ml of 23% polyvinyl alcohol in PBS with 50 ml glycerol. The cells were then observed under a confocal fluorescence microscope.

**Q.** lysophosphatidic acid [LPA] was tested. Which CREB phosphorylation [1] did it give?
**A.** The CREB phosphorylation was “correlated well with cAMP accumulation”.

**Q.** And the PKA activity ([2]; near-senescent cells)?
**A.** Its PKA activity is “increased”.

**Q.** What about the PKA activity ([2]; presenescent cells) of the same substance?
**A.** Its PKA activity is “decreased”.

**Q.** What about the PDE activity ([3]; near-senescent cells) of the same substance?
**A.** Its PDE activity is “reduced”.

**Q.** What about the PDE activity ([3]; presenescent cells) of the same substance?
**A.** Its PDE activity is “increased”.

**Q.** And the “actin polymerization (stress fibers)” value ([4]; presenescent fibroblasts (passage 10))?
**A.** The value was “enhanced the formation of stress fibers”.

**Q.** And the “agonist-induced actin polymerization in senescent cells” value ([4]; senescent cells (passage 27))?
**A.** The value was “partially reduced”.
